{"source": "patent US20260248863A1", "about": "“METHODS AND MATERIALS FOR TREATING GASTROINTESTINAL DISORDERS” (Mayo Foundation for Medical Education and Research, priority 2020, published 2026)", "key": {"Caco-2 monolayers [1]": {"test_system": "Caco-2 monolayers", "test": "Transepithelial resistance (TER) drop induced by high PA fecal supernatants on Caco-2 monolayers", "assay_type": "cell-based", "protocol": "(§1) Apical addition of high PA fecal supernatants on Caco-2 monolayers caused a drop in transepithelial resistance (TER) which was not seen with low PA supernatant (FIG. 16A). […] Since pancreatic elastases were found as the most abundant proteases driving the fecal PA, their effects on barrier were tested."}, "Caco-2 monolayers [2]": {"test_system": "Caco-2 monolayers", "test": "Texas red dextran flux across Caco-2 monolayers", "assay_type": "cell-based", "protocol": "as §1"}}}
{"molecule": "CC(C)C[C@H](NC(=O)[C@H]1O[C@@H]1C(=O)O)C(=O)NCCCCN=C(N)N", "note": "[E64]", "values": [{"measurement": "inhibition of fecal supernatant induced TER drop", "setting": "Caco-2 monolayers [1]; apical preincubation, 0.1 mM E64, Caco-2 monolayers, FIG. 17A", "result": "not"}, {"measurement": "reduction of increased paracellular (Texas red dextran) flux caused by high PA supernatants", "setting": "Caco-2 monolayers [2]; apical preincubation, 0.1 mM E64, Caco-2 monolayers, FIG. 17B", "result": "not"}]}
{"molecule": "CC(C)CC(=O)N1CCN(C(=O)CCCCCN)CC1", "note": "[ENMD1068]", "values": [{"measurement": "effect of high PA fecal supernatant on TER (in words)", "setting": "Caco-2 monolayers [1]; FIG. 18, n=5/group, p<0.05", "result": "blocks"}, {"measurement": "inhibition of TER drop induced by high PA fecal supernatants", "setting": "Caco-2 monolayers [1]; preincubation of Caco-2 monolayer, 150 μM", "result": 45, "unit": "%"}]}
{"molecule": "Trypsin", "values": [{"measurement": "effect on barrier", "setting": "Caco-2 monolayers [2]", "result": "had an effect on barrier"}]}
{"molecule": "porcine pancreatic elastase: porcine pancreatic elastase, protease tested for effects on barrier", "values": [{"measurement": "Texas red dextran flux, 24 hour basolateral concentration", "setting": "Caco-2 monolayers [2]; 1 mM, Caco-2 monolayers, control 0.1 μg/mL, n=4/group, p<0.05", "result": 5.9, "unit": "µg/mL"}]}
